Assay results: patent US20080008734A1, “Reduction of skin irritation caused by biomedical electrodes” (priority 2006, published 2008)

Tests used:
skin = experiment: Stimulation erythema with antioxidant incorporated in the conductive hydrogel adhesive; format: in vivo; conditions: in UV cured acrylic hydrogel adhesive; this amount gave a very weak adhesive that cohesively failed
Description: In the majority of conductive hydrogel adhesives used in these biomedical electrodes are UV cured acrylics formed by the free radical polymerization of hydrophilic acrylic monomers in water. UV light generates free radicals from photoinitiators, however antioxidants react with these free radicals thereby inhibiting the polymerization of the acrylic monomers. Antioxidants such as MEHQ are used to preserve acrylic monomers until use. […] A few ppm of the very potent antioxidant Astaxathin inhibited polymerization. The greater than 1500 ppm of MEHQ alone that was needed to prevent and/or alleviate stimulation erythema gave a very weak hydrogel adhesive that cohesively failed leaving residue on the skin.

[1] = Stability of SAP in the aqueous environment of hydrogel adhesives; format: physicochemical; conditions: pH 4.0±0.5 aqueous environment of the hydrogel adhesives
Description: (See U.S. Pat. No. 6,842,636 B2 to Perrault, et al. and U.S. Pat. No. 6,115,625 to Heard et al.).

stability over time [1]	Structure (SMILES)	amount of MEHQ alone needed to prevent and/or alleviate stimulation erythema (skin)
–	COc1ccc(O)cc1 [MEHQ, monomethyl ether of hydroquinone]	greater than 1500 ppm
not stable over time	O=C1O[C@H](C(O)CO)C(O)=C1OP(=O)(O)O (some centres unmarked) [SAP, Sodium Ascorbyl Phosphate]	–
